Experiment [1] relates to forced swim behaviour in rats. The experiment can be described thus: Forced swim assay. It counts as in vivo, Male Sprague-Dawley rats. The settings on record: percent change ±SEM relative to vehicle-treated rats. The text has this: Male Sprague-Dawley rats (approximately 200 g) are placed in a tank of room temperature water for a fifteen min practice swim. Every five sec during the first five min of the practice swim, the rats are rated as immobile (floating with motion needed to keep head above the water), swimming (movement across the swim), or climbing (actively trying to climb out of the tank of water, upward directed movements of the forepaws). The percentage of time the rats spent in each of these responses is calculated.
Approximately 24 h after the practice swim, the rats are treated with vehicle or test compound and placed in the tank for a 5 min swim. As was the case with the practice swim, the rats are rated as immobile, swimming, or climbing during the test swim and the percentage of time spent in each of these responses is calculated. The data is analyzed by one-way ANOVA with post-hoc analysis to compare the behavioral response after vehicle treatment to the behavioral response after drug treatment for each of the three behavioral responses. The level of significance is set at p<0.05.

Experiment [2] addresses T1, cloned human κ opioid receptor (Homo sapiens, UniProt P41145).
T1 construct: expressed in transfected cells; host or cells: CHO cells (membranes)
The experiment can be described thus: Receptor binding: inhibition of [3H]diprenorphine binding to cloned human κ opioid receptor. The settings on record: for inhibition at 10 µM: read-out: % Inhibition at 10 μM (κ); for % Inhibition at 10 μM (κ): [3H]diprenorphine binding. How it is done:
(§1) IC50 values were obtained by nonlinear analysis of the data using GraphPad Prism version 3.00 for Windows (GraphPad Software, San Diego). Ki values were obtained by Cheng-Prusoff corrections of IC50 values.
(§2) After dilution in buffer A and homogenization as before, membrane proteins (10-80 μg) in 250 μL were added to mixtures containing test compound and [^3H]diprenorphine (0.5 to 1.0 nM, 40,000 to 50,000 dpm) in 250 μL of buffer A in 96-well deep-well polystyrene titer plates (Beckman). After incubation at room temperature for one hour, the samples were filtered through GF/B filters that had been presoaked in a solution of 0.5% (w/v) polyethylenimine and 0.1% (w/v) bovine serum albumin in water. The filters were rinsed 4 times with 1 mL of cold 50 mM Tris HCl, pH 7.8 and radioactivity remaining on the filters determined by scintillation spectroscopy. Nonspecific binding was determined by the minimum values of the titration curves and was confirmed by separate assay wells containing 10 μM naloxone.
(§3) To determine the equilibrium dissociation constant for the inhibitors (Ki), radioligand bound (cpm) in the presence of various concentrations of test compounds was measured. The concentration to give half-maximal inhibition (EC50) of radioligand binding was determined from a best nonlinear regression fit to the following equation,
(§4) The nonlinear regression fit was performed using the program Prism® (GraphPad Software, San Diego, Calif.). The Ki values were then determined from the EC50 values by the following equation,
(§5) [formula] where [ligand] is the concentration of radioligand and Kd is the equilibrium dissociation constant for the radioligand.
as §1
(§6) [formula] where [ligand] is the concentration of radioligand and Kd is the equilibrium dissociation constant for the radioligand. Receptor-Mediated [^35S]GTP[…]S Binding

In experiment [3] the target is T2, cloned human μ opioid receptor (Homo sapiens, UniProt P35372).
T2 construct: expressed in transfected cells; host or cells: CHO cells (membranes)
T2 sequence (P35372 whole entry): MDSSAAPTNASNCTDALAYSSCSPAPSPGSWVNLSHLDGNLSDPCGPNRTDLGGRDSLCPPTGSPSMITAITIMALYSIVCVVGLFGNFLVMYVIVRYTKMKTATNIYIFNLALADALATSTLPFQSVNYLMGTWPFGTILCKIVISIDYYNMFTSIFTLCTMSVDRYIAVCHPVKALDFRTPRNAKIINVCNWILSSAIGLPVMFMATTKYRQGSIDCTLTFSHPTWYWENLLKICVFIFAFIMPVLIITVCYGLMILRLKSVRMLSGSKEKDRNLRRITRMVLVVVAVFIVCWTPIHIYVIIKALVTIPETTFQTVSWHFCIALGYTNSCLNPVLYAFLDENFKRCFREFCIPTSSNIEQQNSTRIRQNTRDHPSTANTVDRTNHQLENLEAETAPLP
The experiment in a line: Receptor binding: inhibition of [3H]diprenorphine binding to cloned human μ opioid receptor. The note with it: for % Inhibition at 10 μM (μ): [3H]diprenorphine binding, cloned human μ opioid receptor; for inhibition at 10 µM: read-out: % Inhibition at 10 μM (μ). The protocol:
as §1, §2, §3, §4, §5, §1, §6

Experiment [4] addresses T3, cloned human δ opioid receptor (Homo sapiens, UniProt P41143).
T3 construct: expressed in transfected cells; host or cells: CHO cells (membranes)
The experiment in a line: Receptor-mediated [35S]GTPγS binding, membranes containing cloned human δ opioid receptors. It counts as biochemical. The settings on record: agonist stimulation of [35S]GTPγS binding. How it is done: (§7) Assays are carried out in 96-well FlashPlates® (Perkin Elmer Life Sciences, Inc, Boston, Mass.). Membranes prepared from CHO cells expressing the appropriate receptor (50-100 μg of protein) are added to assay mixtures containing agonist with or without antagonists, 100 μM [^35S]GTPγS (approx. 100,000 dpm), 3.0 μM GDP, 75 mM NaCl, 15 mM MgCl2, 1.0 mM ethylene glycol-bis(β-aminoethyl ether)-N,N,N′,N′-tetracetic acid, 1.1 mM dithiothreitol, 10 μg/mL leupeptin, 10 μg/mL pepstatin A, 200 μg/mL bacitracin, and 0.5 μg/mL aprotinin in 50 mM Tris-HCl buffer, pH 7.8. After incubation at room temperature for one hour, the plates are sealed, centrifuged at 800×g in a swinging bucket rotor for 5 min and bound radioactivity determined with a TopCount microplate scintillation counter (Packard Instrument Co., Meriden, Conn.).
as §7, with “pM [^35S]GTP[…]S” for “μM [^35S]GTPγS”

In experiment [5] the target is T3, cloned human δ opioid receptor. The experiment can be described thus: Receptor binding: inhibition of [3H]diprenorphine binding to cloned human δ opioid receptor. How it is done:
as §1, §2, §3, §4, §5, §1, §6

Setting [6] is: [3H]diprenorphine displacement, cloned human δ opioid receptor, read-out: Ki(δ).

The source of these data is patent US8071611B2, “Spirocyclic heterocyclic derivatives and methods of their use” (Adolor Corporation, priority 2003, dated 2011).

Structures can show the parent of a compound that is named as a salt. Where two headings read alike, the source gives them in different places.

T3 sequence (P41143 whole entry): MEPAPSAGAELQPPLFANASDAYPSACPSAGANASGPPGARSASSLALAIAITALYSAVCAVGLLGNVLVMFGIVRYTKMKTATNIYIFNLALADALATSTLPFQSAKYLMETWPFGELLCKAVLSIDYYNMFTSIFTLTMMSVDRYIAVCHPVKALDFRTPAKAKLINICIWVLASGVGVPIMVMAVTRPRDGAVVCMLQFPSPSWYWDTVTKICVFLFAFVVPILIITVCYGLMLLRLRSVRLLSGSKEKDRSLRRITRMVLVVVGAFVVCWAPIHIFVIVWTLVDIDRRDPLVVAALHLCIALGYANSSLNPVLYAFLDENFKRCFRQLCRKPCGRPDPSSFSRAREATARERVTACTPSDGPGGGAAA
T1 sequence (P41145 whole entry): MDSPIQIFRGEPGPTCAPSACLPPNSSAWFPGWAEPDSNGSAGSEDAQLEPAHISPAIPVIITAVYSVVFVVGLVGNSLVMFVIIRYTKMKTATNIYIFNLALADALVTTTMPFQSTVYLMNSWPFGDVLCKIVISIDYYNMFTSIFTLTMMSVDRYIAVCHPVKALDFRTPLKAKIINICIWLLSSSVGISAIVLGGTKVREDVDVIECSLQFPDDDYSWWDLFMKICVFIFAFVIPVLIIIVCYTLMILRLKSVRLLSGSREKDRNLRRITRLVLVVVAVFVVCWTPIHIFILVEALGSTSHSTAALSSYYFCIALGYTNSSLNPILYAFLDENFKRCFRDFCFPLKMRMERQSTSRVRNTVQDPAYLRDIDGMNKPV

Take `CCN(CC)C(=O)c1ccc(C2=CC3(CCNCC3)Oc3ccccc32)cc1` [Example 1A]: the “IMMOBILITY (% Decrease)” value amounted to 17 ± 10% in experiment [1] (3 mg/kg p.o.) and 43 ± 13 % in experiment [1] (30 mg/kg p.o.). Also, the “SWIMMING (% Increase)” value in experiment [1] (3 mg/kg p.o.) is given as 37 ± 17%; in experiment [1] (30 mg/kg p.o.), 137 ± 35 %. For the same compound, the Ki is > 1 µM in experiment [2] and 0.98 µM in experiment [3].
For `CCN(CC)C(=O)c1ccc(C2=CC3(CCNCC3)Oc3ccc(F)cc32)cc1` [Example Z2, 4-[(4-N,N-diethylaminocarbonyl)phenyl]-6-fluoro-spiro[2H,1-benzopyran-2,4′-piperidine]hydrochloride], the inhibition at 10 µM in experiment [2] was determined as 17%. In addition, in experiment [4], the EC50 was found to be 0.07 µM. The Ki is 4.5 µM in experiment [3] and 0.0026 µM in experiment [5].
Consider `CCN(CC)C(=O)c1ccc(C2=CC3(CCNCC3)Oc3ccc(O)cc32)cc1.Cl` [Example Z3, 4-[(4-N,N-diethylaminocarbonyl)phenyl]-6-hydroxyspiro[2H,1-benzopyran-2,4′-piperidine]hydrochloride], for which the Ki in experiment [2] ([3H]diprenorphine displacement, cloned human κ opioid receptor, read-out: Ki(κ)) was determined as 0.79 µM; in experiment [5] (setting [6]) it was 0.00036 µM. In experiment [4], this compound had an EC50 of 0.0014 µM. For the same compound, the “% Inhibition at 10 μM (μ)” value in experiment [3] amounted to 50%.
For `CCN(CC)C(=O)c1ccc(C2CC3(CCNCC3)Oc3ccccc32)cc1.Cl` (stereo not drawn) [Example Z4, 4-[(4-N,N-diethylaminocarbonyl)phenyl]-3,4-dihydrospiro[2H,1-benzopyran-2,4′-piperidine]hydrochloride], in experiment [2] (cloned human κ opioid receptor), the “% Inhibition at 10 μM (κ)” value came to 19%. Further, in experiment [3], the “% Inhibition at 10 μM (μ)” value is given as 34%.
With `CCN(CC)C(=O)c1ccc(C2=CC3(CCN(C)CC3)Oc3ccccc32)cc1` [Example Z5, 4-[(4-N,N-diethylaminocarbonyl)phenyl]-N-methyl-spiro[2H,1-benzopyran-2,4′-piperidine]hydrochloride], the results for the inhibition at 10 µM in experiment [2] and in experiment [3] were 23% and 17%, respectively. The EC50 in experiment [4] stood at 0.14 µM. In addition, the Ki in experiment [5] amounted to 0.0058 µM.
Regarding `CCCN(CC1CC1)C(=O)c1ccc(C2=CC3(CCNCC3)Oc3ccccc32)cc1` [Example Z7, 4-[(4-N-propyl-N-cyclopropylmethylaminocarbonyl)phenyl]-spiro[2H,1-benzopyran-2,4′-piperidine]hydrochloride], the inhibition at 10 µM in experiment [2] worked out at 51%. Further, the EC50 in experiment [4] turned out to be 0.029 µM. Also, the Ki turned out to be 2.5 µM in experiment [3] and 0.0017 µM in experiment [5].
Regarding `O=C(O)C1CCN(C(=O)c2ccc(C3=CC4(CCNCC4)Oc4ccccc43)cc2)CC1` [Example Z9, 4-[4-(4-carboxypiperidineaminocarbonyl)phenyl]-spiro[2H,1-benzopyran-2,4′-piperidine]hydrochloride], the values for the inhibition at 10 µM in experiment [2] and in experiment [3] were 24% and 17%, respectively. In experiment [4], the EC50 was 0.16 µM. Further, in experiment [5], the Ki is 0.015 µM.
Regarding `C1=C(c2ccc(-c3nn[nH]n3)cc2)c2ccccc2OC12CCNCC2.O=C(O)C(F)(F)F` [Example Z10, 4-[4-(2H-tetrazolyl)phenyl]-spiro[2H,1-benzopyran-2,4′-piperidine]trifluoroacetic acid salt], the “% Inhibition at 10 μM (κ)” value in experiment [2] (cloned human κ opioid receptor) amounted to 1.3%. The compound further displayed a 50% effective concentration (EC50) in experiment [4] of 0.022 µM. Moreover, in experiment [3], the “% Inhibition at 10 μM (μ)” value was found to be 29%. In addition, the Ki in experiment [5] (setting [6]) stood at 0.0027 µM.
On to `O=C(O)CCCn1nnc(-c2ccc(C3=CC4(CCNCC4)Oc4ccccc43)cc2)n1` [Example Z11, 4-[4-(4-carboxypropyl-tetrazol-2-yl)phenyl]-spiro[2H,1-benzopyran-2,4′-piperidine]], for which the inhibition at 10 µM in experiment [2] was -3.3%; in experiment [3] it was 3.7%. The compound also registered an EC50 in experiment [4] of 0.14 µM. The same compound had a Ki in experiment [5] of 0.008 µM.
On to `C1=C(c2cccnc2)c2ccccc2OC12CCNCC2` [Example Z12, 4-(3-pyridyl)-spiro[2H,1-benzopyran-2,4′-piperidine]hydrochloride], for which the inhibition at 10 µM in experiment [2] was found to be 44%; in experiment [3] it was 36%. Besides, the Ki in experiment [5] was found to be 0.054 µM.
`CS(=O)(=O)c1ccc(C2=CC3(CCNCC3)Oc3ccccc32)cc1` [Example Z13, 4-[4-(methanesulfonyl)-phenyl]-spiro[2H,1-benzopyran-2,4′-piperidine]hydrochloride]: the inhibition at 10 µM in experiment [2] is 17%; in experiment [3] it was 41%. This compound gave a Ki in experiment [5] of 0.028 µM.
Turning to `CCN(CC)C(=O)c1ccc(C2=CC3(CC4CCC(C3)N4)Oc3ccccc32)cc1` (stereo not drawn) [Example Z14, 4-[(4-N,N-diethylaminocarbonyl)phenyl]spiro[2H,1-benzopyran-2,4′-nortropine]hydrochloride], the results for the inhibition at 10 µM in experiment [2] and in experiment [3] were 8% and 24%, respectively. This compound also returned a Ki in experiment [5] of 0.026 µM.

One may read the Ki as the dissociation constant of the complex between target and ligand, obtained from inhibition or displacement. Usually inhibition stands for the change of the read-out against control, counted positive when it falls. By EC50 is commonly meant the concentration giving half of the maximal effect. Lower therefore signals an effect from little substance. Usually % Inhibition stands for the percentage by which the read-out fell short of the control.
